Measurements as given in patent US20080175903A1, “Treatment of anxiety with eszopiclone” (Sepracor Inc., priority 2006, published 2008).
Read-outs that look alike come from different tables or passages of the source.

Tested on: rhesus monkeys
Test: Rhesus monkey conflict procedure (suppressed and non-suppressed responding)
Format: in vivo
Details: for ED50: Macaca mulatta, iv, rhesus monkeys; for Estimated anxiolytic dose / expected human oral dose: minimum recommended dose of diazepam 2 mg
Method: FIG. 3 is a plot of rates of non-suppressed and suppressed responding by rhesus monkeys trained in a conflict procedure. Monkeys were injected i.v. with cumulative doses of (S)-zopiclone. Data are mean±S.E.M. for N=4 monkeys. Points above “V” represent data following drug vehicle administration. Note that *P<0.05 vs. V (control). Experimental methodology was identical to that described by Rowlett J K et al. (2006).
“Conflict Procedure,” as used herein refers to the rhesus monkey conflict procedure reported by Rowlett et al. (Psychopharmacology (2006) 184:201-211). Antianxiety dosage determination in rhesus monkeys using the procedure set forth by Rowlett et al. is correlative with antianxiety dosages in humans. The conflict procedure is a method of determining the parameters correlating a clinically determinable effect of eszopiclone in rhesus monkeys with analogous effects in a human subject. The results of conflict procedures in rhesus monkeys are closely correlated with dosages of agents providing anxiolysis in humans. Accordingly, the conflict procedure is a method of determining whether a dosage of eszopiclone provides clinically determinable treatment or prophylaxis of anxiety in humans.
Conflict procedures in animals are used to study mechanisms underlying the anxiolytic effects of benzodiazepines (Rowlett J K et al., Psychopharmacology (2006) 184:201-211). […] The effects of each benzodiazepine in rhesus conflict procedure is to increase suppressed responding at doses lower than the doses that ultimately decrease rates of non-suppressed responding. This characteristic profile in the rhesus conflict procedure contrasts dramatically with the effects of non-benzodiazepine hypnotics zolpidem and zaleplon, and also contrasts to the effects of GABA-A ligands with subtype efficacies different from classical benzodiazepines, such as flumazenil and CL218,872 (Rowlett J K et al., 2006).
This correlation was used to estimate the therapeutic dose in humans for anxiolytic effects. The ED50 of the suppressed responding in FIG. 3 is 0.07 mg/kg i.v., indicating a 50% anxiolytic effect at that dose i.v. in the rhesus procedure. Using this ED50 in the regression analysis of Rowlett J K et al. (2006), an expected human oral dose of 0.9 mg is obtained. This dose is below the hypnotic doses (i.e., it is subsedative) used clinically in humans (1, 2, and 3 mg), further supporting the validity of the correspondence between the efficacy profiles of classical benzodiazepines and (S)-zopiclone.
The potencies of eszopiclone to alter suppressed and non-suppressed responding were estimated by calculating the dose that engendered 5% to 95% of the maximum effect (EDx, where x=5-95%). The EDx for suppressed responding was obtained by dividing rates of suppressed responding for individual monkeys by the average maximum increase in response rate (i.e., the peak effect) and multiplying the value by 100. Doses on the ascending limb of the dose-response function were used to calculate the EDx by log-linear regression analysis. The EDx for non-suppressed responding was obtained by dividing rates of non-suppressed responding for individual monkeys by the average maximum decrease in response rate (this corresponded to the highest dose tested) and multiplying by 100. The EDx values for non-suppressed responding were calculated by log-linear regression analysis. All potencies were expressed as the mean±SEM for n=4 monkeys.
A linear relationship between relative potency to induce clinical effects in humans and relative potency to increase suppressed responding or decrease non-suppressed responding in monkeys has been determined previously for 10 standard benzodiazepines (Rowlett et al., 2006). […]

[1] = log10 of predicted potency relative to diazepam in humans
[2] = predicted potency relative to diazepam in humans
[3] = relative potency in the monkey conflict procedure

## CN1CCN(C(=O)O[C@H]2c3nccnc3C(=O)N2c2ccc(Cl)cn2)CC1 [Eszopiclone, (+)-(5S)-6-(chloropyridin-2-yl)-7-oxo-6,7-dihydro-5H-pyrrolo[3,4-b]pyrazin-5-yl 4-methyl-piperazine-1-carboxylate]
read-out: ED50, non-suppressed responding
  ED50: 0.74 mg/kg
read-out: ED50, suppressed responding
  ED50: 0.07 mg/kg
human, regression of Rowlett et al. (2006), listed as (S)-zopiclone
  Estimated anxiolytic dose / expected human oral dose: 0.9 mg
human, regression of Rowlett et al. (2006), listed as eszopiclone
  Estimated anxiolytic dose / expected human oral dose: Estimated anxiolytic dose for eszopiclone = 0.9 mg
human, regression of Rowlett et al. (2006), maximum recommended dose of diazepam 10 mg
  Estimated sedative dose: Estimated sedative dose for eszopiclone = 3.4 mg
[1]
  Y = 0.583x − 0.175, Y (eszopiclone relative potency), non-suppressed responding: −0.47
  Y = 0.672x − 0.174, Y (eszopiclone relative potency), suppressed responding: −0.34
[2]
  10^Y, non-suppressed responding: 0.34
  10^Y, suppressed responding: 0.46
[3]
  Ratio (eszopiclone ED50 / diazepam ED50), non-suppressed responding: 0.31
  Ratio (eszopiclone ED50 / diazepam ED50), suppressed responding: 0.64
Rhesus monkey, in vivo
  Log10(Ratio), non-suppressed responding: −0.51
  Log10(Ratio), suppressed responding: −0.19
X = 5 % maximum increase, N = 4 monkeys
  ED5 to increase rates of suppressed responding (mean): 0.029 mg/kg, i.v.
X = 10 % maximum increase, N = 4 monkeys
  ED10 to increase rates of suppressed responding (mean): 0.032 mg/kg, i.v.
X = 15 % maximum increase, N = 4 monkeys
  ED15 to increase rates of suppressed responding (mean): 0.036 mg/kg, i.v.
X = 20 % maximum increase, N = 4 monkeys
  ED20 to increase rates of suppressed responding (mean): 0.040 mg/kg, i.v.
X = 25 % maximum increase, N = 4 monkeys
  ED25 to increase rates of suppressed responding (mean): 0.044 mg/kg, i.v.
X = 30 % maximum increase, N = 4 monkeys
  ED30 to increase rates of suppressed responding (mean): 0.048 mg/kg, i.v.
X = 35 % maximum increase, N = 4 monkeys
  ED35 to increase rates of suppressed responding (mean): 0.054 mg/kg, i.v.
X = 40 % maximum increase, N = 4 monkeys
  ED40 to increase rates of suppressed responding (mean): 0.059 mg/kg, i.v.
X = 45 % maximum increase, N = 4 monkeys
  ED45 to increase rates of suppressed responding (mean): 0.066 mg/kg, i.v.
X = 50 % maximum increase, N = 4 monkeys
  ED50 to increase rates of suppressed responding (mean): 0.073 mg/kg, i.v.
X = 55 % maximum increase, N = 4 monkeys
  ED55 to increase rates of suppressed responding (mean): 0.081 mg/kg, i.v.
X = 60 % maximum increase, N = 4 monkeys
  ED60 to increase rates of suppressed responding (mean): 0.090 mg/kg, i.v.
X = 65 % maximum increase, N = 4 monkeys
  ED65 to increase rates of suppressed responding (mean): 0.100 mg/kg, i.v.
X = 70 % maximum increase, N = 4 monkeys
  ED70 to increase rates of suppressed responding (mean): 0.110 mg/kg, i.v.
X = 75 % maximum increase, N = 4 monkeys
  ED75 to increase rates of suppressed responding (mean): 0.123 mg/kg, i.v.
X = 80 % maximum increase, N = 4 monkeys
  ED80 to increase rates of suppressed responding (mean): 0.136 mg/kg, i.v.
X = 85 % maximum increase, N = 4 monkeys
  ED85 to increase rates of suppressed responding (mean): 0.151 mg/kg, i.v.
X = 90 % maximum increase, N = 4 monkeys
  ED90 to increase rates of suppressed responding (mean): 0.168 mg/kg, i.v.
X = 95 % maximum increase, N = 4 monkeys
  ED95 to increase rates of suppressed responding (mean): 0.186 mg/kg, i.v.
